Laboratory results taken from patent US10590129B2 (Incozen Therapeutics Pvt. Ltd., priority 2010, dated 2020).

Assays:
MKN-45 cells = assay: Inhibition of MKN-45 proliferation (MTT); type: cell-based, human; conditions: for inhibition at 0.1 µM / inhibition at 1 µM / GI50: Homo sapiens, MKN-45, MKN-45 proliferation
In short: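 Viability measured by MTT dye reduction on day 5 after compound addition on day 2 to MKN-45 gastric adenocarcinoma cells (high Met expression) seeded on day 1 in complete medium.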

Compound | inhibition at 0.1 µM (MKN-45 cells; 0.1 μM) [%] | inhibition at 1 µM (MKN-45 cells; 1 μM) [%] | melting point [°C] | Inhibition (% Inhibition of MKN-45 proliferation) (MKN-45 cells; MKN-45 proliferation, 0.1 μM) | % inhibition @ 1 uM (MKN-45 cells; MKN-45 proliferation, 1 μM) | GI50 (MKN-45 cells) [µM]
CC(C)NS(=O)(=O)c1ccc(-c2ccc3nnn(Cc4ccc5ncccc5c4)c3n2)cc1 [Ex 95, N-Isopropyl-4-(3-(quinolin-6-ylmethyl)-3H-[1,2,3]triazolo[4,5-b]pyridin-5-yl)benzenesulfonamide] | < 25 | 50 to 75 | 154 to 156 |  |  | 
CN(C)c1cccc(-c2ccc3nnn(Cc4ccc5ncccc5c4)c3n2)c1 [Ex 96, N,N-Dimethyl-3-(3-(quinolin-6-ylmethyl)-3H-[1,2,3]triazolo[4,5-b]pyridin-5-yl)aniline] | < 25 | < 25 | 124 to 126 |  |  | 
CC(C)CNC(=O)c1ccc(-c2ccc3nnn(Cc4ccc5ncccc5c4)c3n2)cc1F [Ex 97, 2-Fluoro-N-isobutyl-4-(3-(quinolin-6-ylmethyl)-3H-[1,2,3]triazolo[4,5-b]pyridin-5-yl)benzamide] | 25 to 50 | 25 to 50 | 158 to 160 |  |  | 
O=C(NC1CCCC1)c1ccc(-c2ccc3nnn(Cc4ccc5ncccc5c4)c3n2)cc1F [Ex 98, N-Cyclopentyl-2-fluoro-4-(3-(quinolin-6-ylmethyl)-3H-[1,2,3]triazolo[4,5-b]pyridin-5-yl)benzamide] | 25 to 50 | 50 to 75 | 166 to 168 |  |  | 
CC(C)NC(=O)c1ccc(-c2ccc3nnn(Cc4ccc5ncccc5c4)c3n2)cc1F [Ex 99, 2-Fluoro-N-isopropyl-4-(3-(quinolin-6-ylmethyl)-3H-[1,2,3]triazolo[4,5-b]pyridin-5-yl)benzamide] | 50 to 75 | 50 to 75 | 177 to 179 |  |  | 
CCCNC(=O)c1ccc(-c2ccc3nnn(Cc4ccc5ncccc5c4)c3n2)cc1Cl [Ex 102, 2-Chloro-N-propyl-4-(3-(quinolin-6-ylmethyl)-3H-[1,2,3]triazolo[4,5-b]pyridin-5-yl)benzamide] | 50 to 75 | 75 to 100 | 128 to 130 |  |  | 
CNC(=O)c1ccc(-c2ccc3nnn(C(C)(C)c4ccc5ncccc5c4)c3n2)cc1F [Ex 103, 2-Fluoro-N-methyl-4-(3-(2-(quinolin-6-yl)propan-2-yl)-3H-[1,2,3]triazolo[4,5-b]pyridin-5-yl)benzamide] | < 25 |  | 171 to 173 |  |  | 
O=C(NC1CCC1)c1ccc(-c2ccc3nnn(Cc4ccc5ncccc5c4)c3n2)cc1F [Ex 104, N-Cyclobutyl-2-fluoro-4-(3-(quinolin-6-ylmethyl)-3H-[1,2,3]triazolo[4,5-b]pyridin-5-yl)benzamide] | 50 to 75 | 75 to 100 | 171 to 174 |  |  | 
CCCNC(=O)c1ccc(-c2ccc3nnn(C(C)(C)c4ccc5ncccc5c4)c3n2)cc1F [Ex 105, 2-Fluoro-N-propyl-4-(3-(2-(quinolin-6-yl)propan-2-yl)-3H-[1,2,3]triazolo[4,5-b]pyridin-5-yl)benzamide] | < 25 | < 25 | 162 to 164 |  |  | 
CC(C)(c1ccc2ncccc2c1)n1nnc2ccc(-c3ccc(C(=O)NC4CC4)c(F)c3)nc21 [Ex 106, N-Cyclopropyl-2-fluoro-4-(3-(2-(quinolin-6-yl)propan-2-yl)-3H-[1,2,3]triazolo[4,5-b]pyridin-5-yl)benzamide] | < 25 | 75 to 100 | 156 to 159 |  |  | 
CCNC(=O)c1ccc(-c2ccc3nnn(C(C)(C)c4ccc5ncccc5c4)c3n2)cc1F [Ex 107, N-Ethyl-2-fluoro-4-(3-(2-(quinolin-6-yl)propan-2-yl)-3H-[1,2,3]triazolo[4,5-b]pyridin-5-yl)benzamide] | < 25 |  | 132 to 135 |  |  | 
CNC(=O)c1ccc(-c2ccc3nnn(Cc4ccc5ncccc5c4)c3n2)cc1Cl [Ex 109, 2-Chloro-N-methyl-4-(3-(quinolin-6-ylmethyl)-3H-[1,2,3]triazolo[4,5-b]pyridin-5-yl)benzamide] | 75 to 100 |  | 227 to 230 |  |  | 
CONC(=O)c1ccc(-c2ccc3nnn(Cc4ccc5ncccc5c4)c3n2)cc1F.Cl [Ex 110, 2-Fluoro-N-methoxy-4-(3-(quinolin-6-ylmethyl)-3H-[1,2,3]triazolo[4,5-b]pyridin-5-yl)benzamide hydrochloride] |  |  | 145 to 147 | B (B = ≥50-<75%) | B (B = ≥50-<75%) | 
O=C(Nc1nccs1)c1ccc(-c2ccc3nnn(Cc4ccc5ncccc5c4)c3n2)cc1F [Ex 111, 2-Fluoro-4-(3-(quinolin-6-ylmethyl)-3H-[1,2,3]triazolo[4,5-b]pyridin-5-yl)-N-(thiazol-2-yl)benzamide] | < 25 | 75 to 100 | 204 to 206 |  |  | 
O=C(NCCC(=O)N1CCCC1)c1ccc(-c2ccc3nnn(Cc4ccc5ncccc5c4)c3n2)cc1F [Ex 114, 2-Fluoro-N-(3-oxo-3-(pyrrolidin-1-yl)propyl)-4-(3-(quinolin-6-ylmethyl)-3H-[1,2,3]triazolo[4,5-b]pyridin-5-yl)benzamide] | 50 to 75 | 50 to 75 | 151 to 153 |  |  | 
O=C(NO)c1ccc(-c2ccc3nnn(Cc4ccc5ncccc5c4)c3n2)cc1F [Ex 115, 2-Fluoro-N-hydroxy-4-(3-(quinolin-6-ylmethyl)-3H-[1,2,3]triazolo[4,5-b]pyridin-5-yl)benzamide] | < 25 | 75 to 100 | 180 to 182 |  |  | 
CC(C)NC(=O)c1ccc(-c2ccc3nnn(Cc4ccc5ncccc5c4)c3n2)cc1 [Ex 116, N-Isopropyl-4-(3-(quinolin-6-ylmethyl)-3H-[1,2,3]triazolo[4,5-b]pyridin-5-yl)benzamide] | < 25 | 75 to 100 | 181 to 183 |  |  | 
O=C(NCCC(=O)N1CCCCC1)c1ccc(-c2ccc3nnn(Cc4ccc5ncccc5c4)c3n2)cc1F [Ex 117, 2-Fluoro-N-(3-oxo-3-(piperidin-1-yl)propyl)-4-(3-(quinolin-6-ylmethyl)-3H-[1,2,3]triazolo[4,5-b]pyridin-5-yl)benzamide] | 50 to 75 | 75 to 100 | 109 to 111 |  |  | 
CCNC(=O)Nc1ccc(-c2ccc3nnn(Cc4ccc5ncccc5c4)c3n2)cc1 [Ex 118, 1-Ethyl-3-(4-(3-(quinolin-6-ylmethyl)-3H-[1,2,3]triazolo[4,5-b]pyridin-5-yl)phenyl)urea] | < 25 | 75 to 100 | 193 to 196 |  |  | 
O=C(NCCC(=O)N1CCOCC1)c1ccc(-c2ccc3nnn(Cc4ccc5ncccc5c4)c3n2)cc1F [Ex 120, 2-Fluoro-N-(3-morpholino-3-oxopropyl)-4-(3-(quinolin-6-ylmethyl)-3H-[1,2,3]triazolo[4,5-b]pyridin-5-yl)benzamide] | 75 to 100 | 25 to 50 | 212 to 215 |  |  | 
O=C(Nc1nc[nH]n1)c1ccc(-c2ccc3nnn(Cc4ccc5ncccc5c4)c3n2)cc1Cl [Ex 122, 2-chloro-4-(3-(quinolin-6-ylmethyl)-3H-[1,2,3]triazolo[4,5-b]pyridin-5-yl)-N-(1H-1,2,4-triazol-3-yl)benzamide] | < 25 | < 25 | 286 to 288 |  |  | 
O=C(NCCCN1CCCCC1)c1ccc(-c2ccc3nnn(Cc4ccc5ncccc5c4)c3n2)cc1F [Ex 124, 2-Fluoro-N-(3-(piperidin-1-yl)propyl)-4-(3-(quinolin-6-ylmethyl)-3H-[1,2,3]triazolo[4,5-b]pyridin-5-yl)benzamide] | 75 to 100 | 50 to 75 | 135 to 137 |  |  | 
c1cnc2ccc(Cn3cnc4ccc(-c5cn[nH]c5)nc43)cc2c1 [Ex 147, 6-((5-(1H-Pyrazol-4-yl)-3H-imidazo[4,5-b]pyridin-3-yl)methyl)quinoline] |  | < 25 | 214 to 216 |  |  | 
Cn1cc(-c2ccc3ncn(Cc4ccc5ncccc5c4)c3n2)cn1 [Ex 148, 6-((5-(1-Methyl-1H-pyrazol-4-yl)-3H-imidazo[4,5-b]pyridin-3-yl)methyl)quinoline] |  | < 25 | 150 to 152 |  |  | 
OCCn1cc(-c2ccc3ncn(Cc4ccc5ncccc5c4)c3n2)cn1 [Ex 150, 2-(4-(3-(Quinolin-6-ylmethyl)-3H-imidazo[4,5-b]pyridin-5-yl)-1H-pyrazol-1-yl)ethanol] |  | < 25 | 160 to 163 |  |  | 
OCCNc1ccc2nnn(Cc3ccc4ncccc4c3)c2n1 [Ex 151, 2-(3-(Quinolin-6-ylmethyl)-3H-[1,2,3]triazolo[4,5-b]pyridin-5-ylamino)ethanol] |  | 50 to 75 | 184 to 186 |  |  | 
c1cnc2ccc(Cn3nnc4ccc(-n5ccnc5)nc43)cc2c1 [Ex 152, 6-((5-(1H-Imidazol-1-yl)-3H-[1,2,3]triazolo[4,5-b]pyridin-3-yl)methyl)quinoline] |  |  | 227 to 230 |  |  | 0.15 to 0.5
c1cnc2ccc(Cn3nnc4ccc(-c5cnn(C6CCNCC6)c5)nc43)cc2c1 [Ex 157, 6-((5-(1-(Piperidin-4-yl)-1H-pyrazol-4-yl)-3H-[1,2,3]triazolo[4,5-b]pyridin-3-yl)methyl)quinoline] |  |  | 188 to 191 |  |  | < 1
Cl.Fc1ccc(F)c(Cn2nnc3ccc(-c4cnn(C5CCNCC5)c4)nc32)c1Cl [Ex 167, 3-(2-Chloro-3,6-difluorobenzyl)-5-(1-(piperidin-4-yl)-1H-pyrazol-4-yl)-3H-[1,2,3]triazolo[4,5-b]pyridine hydrochloride] |  | 25 to 50 | 85 to 87 |  |  | 
Nc1ncc(-c2ccc3nnn(Cc4ccc5ncccc5c4)c3n2)cn1 [Ex 180, 5-(3-(Quinolin-6-ylmethyl)-3H-[1,2,3]triazolo[4,5-b]pyridin-5-yl)pyrimidin-2-amine] | < 25 | 25 to 50 | 244 to 246 |  |  | 
